Substitutions are numbered along the chain they refer to.
Key:
[1] = target: T1, chimeric P2X7/1 receptor 89–94 (Homo sapiens, UniProt Q99572, I21V/M24R/N16P/N25R/Q22R/R20V/S23N/T19I/T90V/T94V/Y26L); set-up: method as in Allsopp et al., 2017; settings: chimera 89–94; ref Allsopp et al., 2017; cited from earlier work
T1 construct: expressed in transfected cells; host or cells: Xenopus laevis oocytes (cRNA injection)
T1 sequence (Q99572 1-595 N16P/T19I/R20V/I21V/Q22R/S23N/M24R/N25R/Y26L/T90V/T94V): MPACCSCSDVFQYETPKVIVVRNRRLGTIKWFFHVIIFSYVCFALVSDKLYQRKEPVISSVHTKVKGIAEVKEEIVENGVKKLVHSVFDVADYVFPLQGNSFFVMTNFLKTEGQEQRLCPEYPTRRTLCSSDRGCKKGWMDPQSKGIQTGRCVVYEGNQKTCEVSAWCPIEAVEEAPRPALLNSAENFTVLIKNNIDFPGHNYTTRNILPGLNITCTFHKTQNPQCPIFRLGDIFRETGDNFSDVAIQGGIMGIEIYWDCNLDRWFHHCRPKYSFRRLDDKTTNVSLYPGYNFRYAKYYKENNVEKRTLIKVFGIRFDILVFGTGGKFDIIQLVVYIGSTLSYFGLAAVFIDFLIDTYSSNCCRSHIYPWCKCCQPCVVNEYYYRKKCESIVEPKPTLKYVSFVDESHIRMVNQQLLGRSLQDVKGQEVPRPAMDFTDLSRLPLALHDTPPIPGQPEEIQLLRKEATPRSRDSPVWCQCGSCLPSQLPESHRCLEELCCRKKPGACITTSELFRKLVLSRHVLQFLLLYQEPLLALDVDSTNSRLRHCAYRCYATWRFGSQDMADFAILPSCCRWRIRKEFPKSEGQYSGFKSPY

P2X7R mutant Insert G99 = target: T2, P2X7R mutant Insert G99 (Homo sapiens, UniProt Q99572, I21V/INS99D/M24R/N16P/N25R/Q22R/R20V/S23N/T19I/Y26L); set-up: method as in Allsopp et al., 2017; settings: aspartic acid inserted between G99 and N100; ref Allsopp et al., 2017; cited from earlier work
T2 construct: expressed in transfected cells; host or cells: Xenopus laevis oocytes (cRNA injection)
T2 sequence (Q99572 with tags, fused parts or gaps N16P/T19I/R20V/I21V/Q22R/S23N/M24R/N25R/Y26L/INS99D): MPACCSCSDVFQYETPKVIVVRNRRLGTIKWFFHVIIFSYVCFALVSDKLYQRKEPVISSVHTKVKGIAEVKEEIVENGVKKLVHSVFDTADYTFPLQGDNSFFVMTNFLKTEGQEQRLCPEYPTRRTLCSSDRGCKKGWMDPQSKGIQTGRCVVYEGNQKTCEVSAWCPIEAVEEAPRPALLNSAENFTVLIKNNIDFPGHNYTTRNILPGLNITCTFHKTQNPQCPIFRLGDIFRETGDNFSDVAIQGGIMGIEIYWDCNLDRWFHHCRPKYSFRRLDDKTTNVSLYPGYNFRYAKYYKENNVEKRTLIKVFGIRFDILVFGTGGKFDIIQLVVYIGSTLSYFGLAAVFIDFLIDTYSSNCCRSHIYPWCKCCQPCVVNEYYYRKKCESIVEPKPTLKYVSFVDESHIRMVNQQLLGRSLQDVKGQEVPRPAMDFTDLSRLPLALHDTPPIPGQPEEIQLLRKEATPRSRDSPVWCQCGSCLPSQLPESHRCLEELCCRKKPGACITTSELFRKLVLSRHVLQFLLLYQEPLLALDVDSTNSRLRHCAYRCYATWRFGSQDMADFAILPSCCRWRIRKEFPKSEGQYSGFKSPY

[2] = target: T3, chimeric P2X7R with left flipper 280–284 of P2X4 (Homo sapiens, UniProt Q99572, D280T/I21V/K281R/M24R/N16P/N25R/N284E/Q22R/R20V/S23N/T19I/T282D/T283V/Y26L); settings: chimera 280–284 of P2X4
T3 sequence (Q99572 1-595 N16P/T19I/R20V/I21V/Q22R/S23N/M24R/N25R/Y26L/D280T/K281R/T282D/T283V/N284E): T1 sequence (Q99572 1-595 N16P/T19I/R20V/I21V/Q22R/S23N/M24R/N25R/Y26L/T90V/T94V) with V90T, V94T, D280T, K281R, T282D, T283V, N284E
Protocol: (§1) The production of the correct mutations and absence of coding errors was determined by DNA sequencing (Automated ABI Sequencing Service, University of Leicester, UK). cRNA was generated for the mutants and 50 nl (50 ng) was injected into manually defoliculated stage V Xenopus laevis oocytes using an Inject+Matic microinjector (J.A. Gabay, Inject+Matic, Geneva, Switzerland). Injected oocytes were stored at 16°C in ND96 buffer [in millimolar concentrations, NaCl 96, KCl 2, CaCl2 1.8, MgCl2 1, sodium pyruvate 5, and HEPES 5 (pH 7.6) supplemented with 50 μg/ml gentamycin and 50 μg/ml tetracycline]. Three to seven days postinjection two-electrode voltage clamp recordings were made from oocytes bathed in divalent-free ND96 buffer (in millimolar concentrations, NaCl 96, KCl 2, sodium pyruvate 5, HEPES 5, and 0.1 flufenamic acid, pH 7.6). Oocytes were voltage clamped at a holding potential of −60 mV with a GeneClamp500B amplifier (Molecular Devices).
Inhibition by the antagonists was expressed as the percentage of the peak current amplitude of an EC90 concentration of ATP recorded before the application of antagonist (ATP gave reproducible responses to ATP in the absence of antagonist). Inhibition curves were fitted with the Hill equation (variable slope) using GraphPad Prism 6 (GraphPad Software, San Diego, CA). […] Individual concentration-response curves were generated for individual experiments, and statistical analysis was carried out on the data generated. […] Data are shown as mean ± S.E.M. In all cases n ≥ 3 for all data points.

[3] = test system: P2X7R left flipper point mutant T283A; assay: Two-electrode voltage clamp of ATP-evoked currents in Xenopus oocytes; type: cell-based, human
Protocol: Injected oocytes were stored at 16°C in ND96 buffer [in millimolar concentrations, NaCl 96, KCl 2, CaCl2 1.8, MgCl2 1, sodium pyruvate 5, and HEPES 5 (pH 7.6) supplemented with 50 μg/ml gentamycin and 50 μg/ml tetracycline]. Three to seven days postinjection two-electrode voltage clamp recordings were made from oocytes bathed in divalent-free ND96 buffer (in millimolar concentrations, NaCl 96, KCl 2, sodium pyruvate 5, HEPES 5, and 0.1 flufenamic acid, pH 7.6). Oocytes were voltage clamped at a holding potential of −60 mV with a GeneClamp500B amplifier (Molecular Devices).
Electrophysiological traces were digitized with a Digidata 1322A and collected using pCLAMP 8.2 software (Molecular Devices, Menlo Park, CA). An EC90 concentration of ATP was used to test antagonist sensitivity for the P2X7-2Nβ and mutant receptors [ATP sensitivity of the chimeras and mutants are reported in [Allsopp et al. (2017)]] to standardize for any changes in ATP sensitivity.
Inhibition by the antagonists was expressed as the percentage of the peak current amplitude of an EC90 concentration of ATP recorded before the application of antagonist (ATP gave reproducible responses to ATP in the absence of antagonist). […] Any significant differences from the P2X7-2Nβ control were calculated by one-way analysis of variance, followed by Dunnett’s test (using GraphPad Prism 6). […]

[4] = test system: P2X7R left flipper point mutant N284A; assay: as above; type: cell-based, human
Protocol: as §1
Inhibition by the antagonists was expressed as the percentage of the peak current amplitude of an EC90 concentration of ATP recorded before the application of antagonist (ATP gave reproducible responses to ATP in the absence of antagonist). Inhibition curves were fitted with the Hill equation (variable slope) using GraphPad Prism 6 (GraphPad Software, San Diego, CA). […]

Compound | fold decrease in antagonist affinity [1] | effect on antagonist binding (P2X7R mutant Insert G99) | fold decrease in antagonist sensitivity relative to P2X7-2Nβ [2] | fold decrease in antagonist sensitivity/affinity relative to P2X7-2Nβ [3] | effect on antagonist sensitivity relative to P2X7-2Nβ [4]
Cl.Cl.O=C(CC12CC3CC(CC(C3)C1)C2)Nc1cccc2nc(NCCNCCO)ccc12 [AZ10606120, N-[2-[[2-[(2-hydroxyethyl)amino]ethyl]amino]-5-quinolinyl]-2-tricyclo[3.3.1.13,7]dec-1-ylacetamide dihydrochloride] | > 300 fold | little effect | – | – | –
COc1ccc(CC(=O)NC(N=C(NC#N)Nc2cccc3ncccc23)C(C)(C)C)cc1OC (centres unmarked) [A740003, N-[1-[[(cyanoamino)(5-quinolinylamino)methylene]amino]-2,2-dimethylpropyl]-3,4-dimethoxybenzeneacetamide] | – | – | ~10 fold | ~4 fold | no effect
